The record followed here is US12351580B2, “NLRP3 modulators” (Innate Tumor Immunity, Inc., priority 2017, dated 2025).

Each structure is given as a SMILES string.

This assay concerns the target T1, hNLRP3 (Homo sapiens, UniProt Q96P20).
T1 construct: THP-1 cells were purchased from the American Type Culture Collection; host or cells: THP-1 cells, PMA-differentiated
Briefly: Measurement of IL-1β production in PMA-differentiated THP-1 cells (hNLRP3 agonist; ELISA, alternative and hTRF procedures). The assay is classed as cell-based. In a few lines: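 Supernatant IL-1β was quantified by ELISA in two procedures and by hTRF (kit antibodies at 1:40) in a third. THP-1 cells were first differentiated with PMA ([…] for 24 h; 20 μg/ml overnight; 50 ng/ml overnight), then incubated in 2% FBS RPMI with compounds for 4 h, 2 h and 2 h, respectively, at 1% DMSO or a 10 μM top concentration.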

T1 sequence (Q96P20 whole entry): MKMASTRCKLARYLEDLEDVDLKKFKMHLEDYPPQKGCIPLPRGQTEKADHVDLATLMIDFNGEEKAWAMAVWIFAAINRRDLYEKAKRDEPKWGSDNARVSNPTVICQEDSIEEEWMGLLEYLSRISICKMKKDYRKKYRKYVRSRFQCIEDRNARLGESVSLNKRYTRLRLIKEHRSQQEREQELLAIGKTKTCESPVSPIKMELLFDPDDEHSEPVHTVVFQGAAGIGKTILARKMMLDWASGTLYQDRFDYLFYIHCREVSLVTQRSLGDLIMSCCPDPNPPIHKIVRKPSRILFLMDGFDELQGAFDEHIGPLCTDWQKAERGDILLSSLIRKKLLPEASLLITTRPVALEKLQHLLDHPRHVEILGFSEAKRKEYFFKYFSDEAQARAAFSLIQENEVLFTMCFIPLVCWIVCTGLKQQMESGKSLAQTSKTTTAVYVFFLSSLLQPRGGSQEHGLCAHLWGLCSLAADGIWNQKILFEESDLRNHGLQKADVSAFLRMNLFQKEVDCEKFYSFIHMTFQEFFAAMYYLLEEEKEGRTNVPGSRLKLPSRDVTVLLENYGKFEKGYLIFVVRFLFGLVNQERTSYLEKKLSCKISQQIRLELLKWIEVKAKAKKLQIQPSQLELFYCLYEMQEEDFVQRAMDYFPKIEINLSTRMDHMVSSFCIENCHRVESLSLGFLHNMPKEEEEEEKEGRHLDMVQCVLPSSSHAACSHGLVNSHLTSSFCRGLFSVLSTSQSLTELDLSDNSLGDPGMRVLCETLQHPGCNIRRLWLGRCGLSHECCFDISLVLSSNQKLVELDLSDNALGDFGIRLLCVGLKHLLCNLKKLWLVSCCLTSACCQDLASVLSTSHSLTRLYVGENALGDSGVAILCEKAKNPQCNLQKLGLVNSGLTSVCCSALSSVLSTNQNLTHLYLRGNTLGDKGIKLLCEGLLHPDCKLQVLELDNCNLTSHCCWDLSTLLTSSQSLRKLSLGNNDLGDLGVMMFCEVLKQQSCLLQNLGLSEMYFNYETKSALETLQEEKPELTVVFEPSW

Compound `CCC(=O)NCc1nc2c(N)nc3cc(-c4cc[nH]n4)ccc3c2[nH]1` [Compound 111] showed an EC50 of 0.72 µM.
`CCN(Cc1nc2c(N)nc3cc(-c4cc[nH]n4)ccc3c2[nH]1)C(=O)c1nccs1` [Compound 114] gave an EC50 of 1.04 µM.
As for `CN(Cc1nc2c(N)nc3cc(-c4cc[nH]n4)ccc3c2[nH]1)S(C)(=O)=O` [Compound 115], the figure is 0.9 µM.
As for `CC(c1nc2c(N)nc3cc(-n4cccn4)ccc3c2[nH]1)N1CCCC1=O` (stereo not drawn) [Compound 117], the figure is 1.26 µM; as for `CCN(Cc1nc2c(N)nc3cc(-c4cc[nH]n4)ccc3c2[nH]1)C(=O)C1CC1` [Compound 118], 1.36 µM.
With `Nc1nc2cc(-c3cccs3)ccc2c2[nH]c(CN3CCCC3=O)nc12` [Compound 309, 1-[(4-amino-7-thiophen-2-yl-1H-imidazo[4,5-c]quinolin-2-yl)methyl]pyrrolidin-2-one], the concentration giving a half-maximal response (EC50) is 0.24 µM.
The same measure for `N#Cc1ccccc1-c1ccc2c(c1)nc(N)c1nc(CN3CCCC3=O)[nH]c12` [Compound 315, 2-[4-amino-2-[(2-oxopyrrolidin-l-yl)methyl]-1H-imidazo[4,5-c]quinolin-7-yl]benzonitrile]: 1.18 µM; for `Nc1nc2cc(Br)ccc2c2[nH]c(CN3CC(c4ccccc4)CC3=O)nc12` (stereo not drawn) [Compound 316, 1-[(4-amino-7-bromo-1H-imidazo[4,5-c]quinolin-2-yl)methyl]-4-phenylpyrrolidin-2-one]: 1.1 µM.
`COc1ncccc1-c1ccc2c(c1)nc(N)c1nc(CN3CCCC3=O)[nH]c12` [Compound 319, 1-[[4-amino-7-(2-methoxypyridin-3-yl)-1H-imidazo[4,5-c]quinolin-2-yl]methyl]pyrrolidin-2-one] displayed an EC50 of 6.2 µM.
As for `Nc1nc2cc(-c3cccnc3Cl)ccc2c2[nH]c(CN3CCCC3=O)nc12` [Compound 320, 1-[[4-amino-7-(2-chloropyridin-3-yl)-1H-imidazo[4,5-c]quinolin-2-yl]methyl]pyrrolidin-2-one], the figure is 1.5 µM; as for `Nc1nc2cc(-c3cnccc3Cl)ccc2c2[nH]c(CN3CCCC3=O)nc12` [Compound 321, 1-[[4-amino-7-(4-chloropyridin-3-yl)-1H-imidazo[4,5-c]quinolin-2-yl]methyl]pyrrolidin-2-one], 4.5 µM.
As for `Nc1nc2cc(-c3ccc(C(F)(F)F)nc3)ccc2c2[nH]c(CN3CCCC3=O)nc12` [Compound 324, 1-[[4-amino-746-(trifluoromethyppyridin-3-yl]-1H-imidazo[4,5-c]quinolin-2-yl]methyl]pyrrolidin-2-one], the figure is 6.7 µM; as for `N#Cc1cncc(-c2ccc3c(c2)nc(N)c2nc(CN4CCCC4=O)[nH]c23)c1` [Compound 326, 5-[4-amino-2-[(2-oxopyrrolidin-l-yl)methyl]-1H-imidazo[4,5-c]quinolin-7-yl]pyridine-3-carbonitrile], 2.7 µM; as for `N#Cc1ccc(-c2ccc3c(c2)nc(N)c2nc(CN4CCCC4=O)[nH]c23)cn1` [Compound 327, 5-[4-amino-2-[(2-oxopyrrolidin-l-yl)methyl]-1H-imidazo[4,5-c]quinolin-7-yl]pyridine-2-carbonitrile], 13 µM.
The same measure for `Nc1nc2cc(-c3cncc(Cl)c3)ccc2c2[nH]c(CN3CCCC3=O)nc12` [Compound 328, 1-[[4-amino-7-(5-chloropyridin-3-yl)-1H-imidazo[4,5-c]quinolin-2-yl]methyl]pyrrolidin-2-one]: 4.1 µM.
`Nc1nc2cc(-c3ccc(F)nc3)ccc2c2[nH]c(CN3CCCC3=O)nc12` [Compound 330, 1-[[4-amino-7-(6-fluoropyridin-3-yl)-1H-imidazo[4,5-c]quinolin-2-yl]methyl]pyrrolidin-2-one] came in with an EC50 of 1.6 µM.
For the compound `Nc1nc2cc(-c3cncc(F)c3)ccc2c2[nH]c(CN3CCCC3=O)nc12` [Compound 331, 1-[[4-amino-7-(5-fluoropyridin-3-yl)-1H-imidazo[4,5-c]quinolin-2-yl]methyl]pyrrolidin-2-one], it took 3.2 µM to reach a half-maximal effect (EC50).
With `Nc1nc2cc(C3CCCCCC3)ccc2c2[nH]c(CN3CCCC3=O)nc12` [Compound 332, 1-[(4-amino-7-cycloheptyl-1H-imidazo[4,5-c]quinolin-2-yl)methyl]pyrrolidin-2-one], the half-maximal effective concentration (EC50) was found to be 3.3 µM. The EC50 values of the last two compounds are within 1.5-fold of each other.
The same measure for `Nc1nc2cc(-c3cccnc3)ccc2c2[nH]c(CN3CC(c4ccccc4)CC3=O)nc12` (stereo not drawn) [Compound 333, 1-[(4-amino-7-pyridin-3-yl-1H-imidazo[4,5-c]quinolin-2-yl)methyl]-4-phenylpyrrolidin-2-one]: 1.9 µM.
Turning to `COC(=O)CCCn1c(CN2CCCC2=O)nc2c(N)nc3ccccc3c21` [Compound 335], it took 6.5 µM to reach a half-maximal effect (EC50). Against the preceding compound, the EC50 is about 3.4-fold higher.
`CN(C)C(=O)CCCn1c(CN2CCCC2=O)nc2c(N)nc3cc(Cl)ccc3c21` [Compound 337] registered an EC50 of 80 µM.
As for `CN(C)C(=O)CCCn1c(CN2CCCC2=O)nc2c(N)nc3cc(-c4cccnc4)ccc3c21` [Compound 340], the figure is 50 µM.
As for `COC(=O)CCCn1c(CN2CCCC2=O)nc2c(N)nc3cc(Br)ccc3c21` [Compound 341], the figure is 2.1 µM; as for `COC(=O)CCCn1c(CN2CCCC2=O)nc2c(N)nc3cc(-c4cccnc4)ccc3c21` [Compound 342], 3.3 µM; as for `Nc1nc2ccccc2c2[nH]c(CN3CCCCC3=O)nc12` [Compound 346], 17.3 µM.
As for `COC(=O)CCCn1c(CN2CCCCC2=O)nc2c(N)nc3ccccc3c21` [Compound 347], the figure is 41 µM; as for `CN(C)Cc1nc2c(N)nc3cc(-c4cc[nH]n4)ccc3c2[nH]1` [Compound 348], 0.89 µM; as for `CCN(C)Cc1nc2c(N)nc3cc(-c4cc[nH]n4)ccc3c2[nH]1` [Compound 349], 0.6 µM.
Turning to `Nc1nc2cc(-n3cccn3)ccc2c2[nH]c(CN3C[C@@H](c4ccccc4)CC3=O)nc12` [Compound 357], the response was half-maximal at 0.64 µM (EC50).
As for `Nc1nc2cc(-n3cccn3)ccc2c2[nH]c(CN3C[C@H](c4ccccc4)CC3=O)nc12` [Compound 358], the figure is 0.63 µM; as for `Nc1nc2cc(-c3cc[nH]n3)ccc2c2[nH]c(CN3C(=O)OCC3c3ccccc3)nc12` (stereo not drawn) [Compound 363], 5.8 µM.
Turning to `Nc1nc2cc(-c3cc[nH]n3)ccc2c2[nH]c(CN3CCOC3=O)nc12` [Compound 365], the EC50 was found to be 5 µM. The EC50 values of the last two compounds are within 1.5-fold of each other.
As for `CN1CCN(Cc2nc3c(N)nc4cc(-c5cc[nH]n5)ccc4c3[nH]2)C1=O` [Compound 368], the figure is 3.9 µM; as for `CN(Cc1nc2c(N)nc3cc(-c4cc[nH]n4)ccc3c2[nH]1)C(=O)CO` [Compound 370], 4.8 µM; as for `CN(Cc1nc2c(N)nc3cc(-c4cc[nH]n4)ccc3c2[nH]1)C(=O)CN` [Compound 372], 8.3 µM.
For `CN(C)C(=O)N(C)Cc1nc2c(N)nc3cc(-c4cc[nH]n4)ccc3c2[nH]1` [Compound 375], it took 2.4 µM to reach a half-maximal effect (EC50).
`CN(Cc1nc2c(N)nc3cc(-c4cc[nH]n4)ccc3c2[nH]1)C(=O)c1ccccc1` [Compound 376]: the EC50 came to 3.6 µM. This EC50 lies about 1.5-fold higher than the previous one.
As for `CN(Cc1nc2c(N)nc3cc(-c4cc[nH]n4)ccc3c2[nH]1)C(=O)c1nccs1` [Compound 377], the figure is 4.3 µM; as for `CCN(C=O)Cc1nc2c(N)nc3cc(-c4cc[nH]n4)ccc3c2[nH]1` [Compound 379], 2 µM.
Compound `CCN(Cc1nc2c(N)nc3cc(-c4cc[nH]n4)ccc3c2[nH]1)C(=O)CN(C)C` [Compound 383] yielded an EC50 of 3.6 µM.
The same measure for `CCN(Cc1nc2c(N)nc3cc(-c4ccn(C)n4)ccc3c2[nH]1)C(=O)OC(C)(C)C` [Compound 393]: 7.11 µM.
The same measure for `CCN(Cc1nc2c(N)nc3cc(-c4ccsc4)ccc3c2[nH]1)C(=O)OC(C)(C)C` [Compound 397]: 1.05 µM.
Compound `CCNCc1nc2c(N)nc3cc(-n4cccn4)ccc3c2[nH]1` [Compound 398] showed an EC50 of 1.22 µM.
Turning to `CCNCc1nc2c(N)nc3cc(-c4cccs4)ccc3c2[nH]1` [Compound 399], the EC50 stood at 1.06 µM.
The same measure for `CCNCc1nc2c(N)nc3cc(-c4ccsc4)ccc3c2[nH]1` [Compound 400]: 1.79 µM.
In the case of `CNCc1nc2c(N)nc3cc(-c4cc[nH]n4)ccc3c2[nH]1` [Compound 401], a half-maximal effect (EC50) was put at 1.23 µM.
The same measure for `CNCc1nc2c(N)nc3cc(-n4cccn4)ccc3c2[nH]1` [Compound 402]: 1.31 µM; for `COc1ccc(Cn2c(CN3CCN(C)C3=O)nc3c(N)nc4cc(-c5cc[nH]n5)ccc4c32)cc1` [Compound 403]: 3.66 µM; for `COc1ccc(Cn2c(CN3C(=O)OCC3COCc3ccccc3)nc3c(N)nc4cc(-c5cc[nH]n5)ccc4c32)cc1` (stereo not drawn) [Compound 404]: 2.5 µM.
Regarding `COC(=O)N(C)Cc1nc2c(N)nc3cc(-c4cc[nH]n4)ccc3c2[nH]1` [Compound 405], the EC50 was 2.19 µM.
The same measure for `CCN(Cc1nc2c(N)nc3cc(-c4cc[nH]n4)ccc3c2[nH]1)C(=O)OC` [Compound 406]: 1.37 µM; for `Nc1nc2cc(-c3cc[nH]n3)ccc2c2[nH]c(CN3C[C@@H](c4ccccc4)CC3=O)nc12` [Compound 407]: 6.55 µM; for `Nc1nc2cc(-c3cc[nH]n3)ccc2c2[nH]c(CN3C[C@H](c4ccccc4)CC3=O)nc12` [Compound 408]: 5.23 µM.
The same measure for `COc1ccc(Cn2c(CN3C(=O)OCC3c3ccccc3)nc3c(N)nc4cc(-c5cc[nH]n5)ccc4c32)cc1` (stereo not drawn) [Compound 409]: 2.36 µM; for `COc1ccc(Cn2c(Cn3cnccc3=O)nc3c(N)nc4cc(-c5cc[nH]n5)ccc4c32)cc1` [Compound 414]: 3.83 µM; for `CCN(Cc1nc2c(N)nc3cc(-c4cc[nH]n4)ccc3c2[nH]1)C(=O)C1COC1` [Compound 417]: 7.4 µM.
`CCN(Cc1nc2c(N)nc3cc(-c4ccsc4)ccc3c2[nH]1)C(C)=O` [Compound 419, N-((4-Amino-7-(thiophen-3-yl)-1H-imidazo[4,5-c]quinolin-2-yl)methyl)-N-ethylacetamide]: the concentration giving a half-maximal response (EC50) amounted to 0.91 µM.
